Test results reported in ChEMBL document CHEMBL3886833, “Therapeutic prostaglandin receptor agonists” (2016).

Key:
[1] = target: T1, Prostaglandin E2 receptor EP2 subtype (Homo sapiens, UniProt P43116); test: Radioligand Binding Assay: The cell homogenate was centrifuged at 19000 r.p.m. for 20 min at 4° C. using a Beckman Ti-60 rotor. The resultant pellet was resuspended in TME buffer to give a final 1 mg/ml protein concentration, as determined by Biorad assay. Radioligand binding competition assays vs. [3H-]17-phenyl PGF2a , (5 nM) were performed in a 100 μl volume for 60 min. Binding reactions were started by adding plasma membrane fraction. The reaction was terminated by the addition of 4 ml ice-cold TRIS-HCl buffer and rapid filtration through glass fiber GF/B filters using a Brandel cell harvester. The filters were washed 3 times with ice-cold buffer and oven dried for one hour. [3H-] PGE2 (specific activity 180 Ci mmol) was used as the radioligand for EP receptors. [3H] 17-phenyl PGF2a, was employed for FP receptor binding studies. Binding studies employing EP1, EP2, EP4 and FP receptors were performed in duplicate in at least three separate experiments. A 200 μl assay volume was used. Incubations w; type: cell-free
T1 sequence (P43116 whole entry): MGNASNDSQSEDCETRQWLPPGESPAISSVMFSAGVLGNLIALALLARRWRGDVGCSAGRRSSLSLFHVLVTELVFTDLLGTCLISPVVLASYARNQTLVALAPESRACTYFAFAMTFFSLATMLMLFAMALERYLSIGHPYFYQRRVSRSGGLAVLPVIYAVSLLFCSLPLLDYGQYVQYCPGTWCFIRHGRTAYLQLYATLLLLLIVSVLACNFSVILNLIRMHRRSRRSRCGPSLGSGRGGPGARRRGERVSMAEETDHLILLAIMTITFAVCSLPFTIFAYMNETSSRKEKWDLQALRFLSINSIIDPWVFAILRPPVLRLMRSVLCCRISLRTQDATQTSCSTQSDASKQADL

Thromboxane A2 receptor = target: T2, Thromboxane A2 receptor (Homo sapiens, UniProt P21731); test: FLIPR Assay: Calciium Signal Studies of the Flipr. Cells were seeded at a density of 5×10^4 cells per well in Biocoati® Poly-D-lysine-coated black-wall, clear-bottom 96-well plates (Becton-Dickinson) and allowed to attach overnight in an incubator at 37° C. Cells were then washed two times with HBSS-HEPES buffer (Hanks Balanced Salt Solution without bicarbonate and phenol red, 20 mM HEPES, pH 7.4) using a Denley Cellwash plate washer (Labsystems). After 45 minutes of dye-loading in the dark, using the calcium-sensitive dye Fluo-4 AM at a final concentration of 2 μM, plates were washed four times with HBSS-HEPES buffer to remove excess dye leaving 100 μl in each well. Plates were re-equilibrated to 37° C. for a few minutes. Cells were excited with an Argon laser at 488 nm, and emission was measured through a 510-570 nm bandwidth emission filter (FLIPR, Molecular Devices, Sunnyvale, Calif.). Drug solution was added in a 50 μl volume to each well to give the desired final concentration.; type: functional
T2 sequence (P21731 whole entry): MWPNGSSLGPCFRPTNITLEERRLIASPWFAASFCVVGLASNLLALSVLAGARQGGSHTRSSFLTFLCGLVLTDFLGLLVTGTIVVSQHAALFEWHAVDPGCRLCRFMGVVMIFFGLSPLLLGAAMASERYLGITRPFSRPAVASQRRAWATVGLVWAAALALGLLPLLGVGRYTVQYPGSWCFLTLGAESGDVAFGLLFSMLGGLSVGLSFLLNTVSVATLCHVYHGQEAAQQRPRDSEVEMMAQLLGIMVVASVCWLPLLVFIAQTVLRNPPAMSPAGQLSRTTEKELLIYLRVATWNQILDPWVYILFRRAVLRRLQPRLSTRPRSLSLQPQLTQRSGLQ

[2] = target: T1, Prostaglandin E2 receptor EP2 subtype; test: cAMP Assay: A 384-well drug plate was prepared to contain test compounds, PGE2 and cAMP in 16 serial dilutions in triplicate, using a Biomek station. HEK-EBNA cells expressing a target PG receptor subtype (EP2 or EP4) were suspended in a stimulation buffer (HBSS, 0.1% BSA, 0.5 mM IBMX and 5 mM HEPES, pH 7.4) in a density of 10^4 cells/5 μl. The reaction was initiated by mixing 5 μL drug dilutions with 5 μl of HEK-EBNA cells in a well, carried out for 30 min at room temperature, and followed by the addition of 5 μl anti-cAMP acceptor beads in the control buffer with Tween-20 (25 mM NaCl, 0.03% Tween-20, 5 mM HEPES, pH7.4). After 30 min in the dark at room temperature, the mixtures were incubated with 15 μl biotinylated-cAMP/strpavidin donor beads in Lysis/Detection buffer (0.1% BSA, 0.3% Tween-20 and 5 mM HEPES, pH7.4) for 45 min at the room temperature. Fluorescence changes were read using a Fusion-alpha HT microplate reader.; type: functional, cell-based, 104

O=C(O)c1ccc(CC[C@H]2C(=O)CC[C@@H]2/C=C/C(O)Cc2cccc(Br)c2)cc1 (single isomer, unassigned)
Ki [1]: 1170 nM | EC50 (Thromboxane A2 receptor): 100 nM | EC50 [2]: 8 nM
